Patent US20240132484A1, “BROAD SPECTRUM ANTIVIRAL COMPOUNDS TARGETING THE SKI COMPLEX” (priority 2020, published 2024)
Where “and” joins values, the source holds several entries; their conditions need not be identical. Equal values may be shown once. Entries after “also recorded” stand apart in the source; their conditions may differ. Read-outs that look alike come from different tables or passages of the source.

Columns and labels:
WDR61 = WDR61 (Homo sapiens, UniProt Q9GZS3); experiment: Surface Plasmon Resonance with pure WDR61 protein
cells (nuclei count) = details: for Relative cell count to DMSO controls, Average 1 μM / Relative cell count to DMSO controls, Average 5 μM / Relative cell count to DMSO controls, Average 10 μM / Relative cell count to DMSO controls, Average 25 μM / Relative cell count to DMSO controls, Average 50 μM: toxicity data, 100=DMSO control; for Relative cell count to DMSO controls, Average (for correlation analysis): average value over the 5 tested concentrations (1 to 50 uM); for Toxicity Data, Average, Mean: average of Exp 1-3 (SMW475, SMW477, SMW478)
SARS2 = format: cell-based, SARS-CoV-2; details: for Percentage Inhibition Average 1 μM / Screening data (Relative infection to DMSO controls) Average 1 μM: SARS2, 1 μM; for Screening data (Relative infection to DMSO controls) Average 1 μM / Screening data (Relative infection to DMSO controls) Average 5 μM / Screening data (Relative infection to DMSO controls) Average 10 μM / Screening data (Relative infection to DMSO controls) Average 25 μM / Screening data (Relative infection to DMSO controls) Average 50 μM / Average (relative infection to DMSO over the 5 tested concentrations): 100=DMSO control; for Percentage Inhibition Average 5 μM / Screening data (Relative infection to DMSO controls) Average 5 μM: SARS2, 5 μM; for Percentage Inhibition Average 10 μM / Screening data (Relative infection to DMSO controls) Average 10 μM: SARS2, 10 μM; for Percentage Inhibition Average 25 μM / Screening data (Relative infection to DMSO controls) Average 25 μM: SARS2, 25 μM; for Percentage Inhibition Average 50 μM / Screening data (Relative infection to DMSO controls) Average 50 μM: SARS2, 50 μM; for Average (relative infection to DMSO over the 5 tested concentrations): SARS2, average over 1 to 50 uM; for Percentage Infection Relative to Appropriate DMSO Control with Avg Background Subtraction: Greiner Celigo plates; for Infection Data, Average, Mean: average of Exp 1-3 (SMW475, SMW477, SMW478)
IAV NS1 protein = format: cell-based, influenza A virus
IAV NS1 mRNA = format: cell-based, influenza A virus
A549 cells = details: antiviral concentrations, 24 h
MERS-CoV = experiment: microbe, parasite or virus in culture; format: cell-based; details: Middle East respiratory syndrome-related coronavirus, Huh-7, 24 h, read-out: IC50 against MERS-CoV
Huh7 cells = details: antiviral concentrations, 24 h
Influenza virus = experiment: organism not typed; format: cell-based, influenza A virus; details: for time of addition: inhibition of IAV when drug added 2 h after infection: +2 h versus -2 h and 0 h; for IC50: A549, 24 h, read-out: IC50 against IAV; for antiviral activity against IAV infection: screening, A549 cells
[1] = tested on: Ebola virus Makona strain (EBOV); experiment: microbe, parasite or virus in culture; format: cell-based; details: Zaire ebolavirus, Huh-7, 48 h, read-out: IC50 against EBOV
[2] = tested on: Marburg virus Angola strain (MARV); experiment: organism not typed; format: cell-based; details: Huh-7, 48 h, read-out: IC50 against MARV
SARS-CoV = format: cell-based; details: 24 h
SARS-CoV-2 = format: cell-based
IAV RNA = experiment: Multi-segment RT-PCR (M-RTPCR) of IAV segments in A549 cells; format: cell-based, influenza A virus
[3] = tested on: SARS-CoV-2 mRNA (N, RdRp); format: cell-based; details: two gene targets (N, RdRp)

CN1CCN(CC(O)COc2c(CNCCc3ccccc3F)cccc2C2CCCCC2)CC1 (stereo not drawn) [SILCS4]
direct binding to WDR61 by SPR (WDR61): binding directly to WDR61 | Relative cell count to DMSO controls, Average 1 μM (cells (nuclei count)): 116.22 | Relative cell count to DMSO controls, Average 5 μM (cells (nuclei count)): 123.91 | Relative cell count to DMSO controls, Average 10 μM (cells (nuclei count)): 122.04 | Relative cell count to DMSO controls, Average 25 μM (cells (nuclei count)): 3.91 | Relative cell count to DMSO controls, Average 50 μM (cells (nuclei count)): 2.18 | Toxicity Data, Average, Mean (relative to DMSO control) (cells (nuclei count); Average of Exp 1-3, 1 uM): 116.22% | Toxicity Data, Average, Mean (relative to DMSO control) (cells (nuclei count); Average of Exp 1-3, 5 uM): 123.91% | Toxicity Data, Average, Mean (relative to DMSO control) (cells (nuclei count); Average of Exp 1-3, 10 uM): 122.04% | Toxicity Data, Average, Mean (relative to DMSO control) (cells (nuclei count); Average of Exp 1-3, 25 uM): 3.91% | Toxicity Data, Average, Mean (relative to DMSO control) (cells (nuclei count); Average of Exp 1-3, 50 uM): 2.18% | Relative cell count to DMSO controls, Average (for correlation analysis) (cells (nuclei count)): 73.65 | Percentage Inhibition Average 1 μM (SARS2): 17.51% | Screening data (Relative infection to DMSO controls) Average 1 μM (SARS2): 82.49 | Percentage Inhibition Average 5 μM (SARS2): 59.94% | Screening data (Relative infection to DMSO controls) Average 5 μM (SARS2): 40.06 | Percentage Inhibition Average 10 μM (SARS2): 86.21% | Screening data (Relative infection to DMSO controls) Average 10 μM (SARS2): 13.79 | Percentage Inhibition Average 25 μM (SARS2): 81.29% | Screening data (Relative infection to DMSO controls) Average 25 μM (SARS2): 18.71 | Percentage Inhibition Average 50 μM (SARS2): 90.83% | Screening data (Relative infection to DMSO controls) Average 50 μM (SARS2): 9.17 | Average (relative infection to DMSO over the 5 tested concentrations) (SARS2): 32.84

CN(C)CCN(Cc1cocn1)Cc1cccs1 [SILCS35]
direct binding to WDR61 by SPR (WDR61): binding directly to WDR61 | Relative cell count to DMSO controls, Average 1 μM (cells (nuclei count)): 105.31 | Relative cell count to DMSO controls, Average 5 μM (cells (nuclei count)): 100.64 | Relative cell count to DMSO controls, Average 10 μM (cells (nuclei count)): 89.77 | Relative cell count to DMSO controls, Average 25 μM (cells (nuclei count)): 93.31 | Relative cell count to DMSO controls, Average 50 μM (cells (nuclei count)): 60.5 | Toxicity Data, Average, Mean (cells (nuclei count); n 9, 1 uM): 105.31% | Toxicity Data, Average, Mean (cells (nuclei count); n 9, 5 uM): 100.64% | Toxicity Data, Average, Mean (cells (nuclei count); n 9, 10 uM): 89.77% | Toxicity Data, Average, Mean (cells (nuclei count); n 9, 25 uM): 93.31% | Toxicity Data, Average, Mean (cells (nuclei count); n 9, 50 uM): 60.50% | Relative cell count to DMSO controls, Average (for correlation analysis) (cells (nuclei count)): 89.91 | Percentage Infection Relative to Appropriate DMSO Control with Avg Background Subtraction (SARS2; Exp 1 (SMW475), 1 uM): 90.30% and 94.24% and 95.59% | Percentage Infection Relative to Appropriate DMSO Control with Avg Background Subtraction (SARS2; Exp 1 (SMW475), 5 uM): 93.18% and 101.74% and 91.54% | Percentage Infection Relative to Appropriate DMSO Control with Avg Background Subtraction (SARS2; Exp 1 (SMW475), 10 uM): 105.47% and 116.87% and 111.43% | Percentage Infection Relative to Appropriate DMSO Control with Avg Background Subtraction (SARS2; Exp 1 (SMW475), 25 uM): 79.86% and 56.98% and 87.77% | Percentage Infection Relative to Appropriate DMSO Control with Avg Background Subtraction (SARS2; Exp 1 (SMW475), 50 uM): 83.26% and 106.28% and 78.51% | Percentage Infection Relative to Appropriate DMSO Control with Avg Background Subtraction (SARS2; Exp 2 (SMW477), 1 uM): 131.21% and 119.10% and 117.97% | Percentage Infection Relative to Appropriate DMSO Control with Avg Background Subtraction (SARS2; Exp 2 (SMW477), 5 uM): 138.25% and 128.36% and 147.80% | Percentage Infection Relative to Appropriate DMSO Control with Avg Background Subtraction (SARS2; Exp 2 (SMW477), 10 uM): 155.83% and 113.76% and 119.79% | Percentage Infection Relative to Appropriate DMSO Control with Avg Background Subtraction (SARS2; Exp 2 (SMW477), 25 uM): 125.42% and 107.58% and 104.40% | Percentage Infection Relative to Appropriate DMSO Control with Avg Background Subtraction (SARS2; Exp 2 (SMW477), 50 uM): 109.53% and 98.67% and 105.03% | Percentage Infection Relative to Appropriate DMSO Control with Avg Background Subtraction (SARS2; Exp 3 (SMW478), 1 uM): 105.76% and 80.57% and 90.16% | Percentage Infection Relative to Appropriate DMSO Control with Avg Background Subtraction (SARS2; Exp 3 (SMW478), 5 uM): 134.19% and 78.79% and 94.59% | Percentage Infection Relative to Appropriate DMSO Control with Avg Background Subtraction (SARS2; Exp 3 (SMW478), 10 uM): 151.59% and 95.94% and 77.50% | Percentage Infection Relative to Appropriate DMSO Control with Avg Background Subtraction (SARS2; Exp 3 (SMW478), 25 uM): 126.08% and 121.76% and 139.01% | Percentage Infection Relative to Appropriate DMSO Control with Avg Background Subtraction (SARS2; Exp 3 (SMW478), 50 uM): 140.10% and 158.92% and 157.74% | Percentage Inhibition Average 1 μM (SARS2): −2.77% | Screening data (Relative infection to DMSO controls) Average 1 μM (SARS2): 102.77 | Percentage Inhibition Average 5 μM (SARS2): −12.05% | Screening data (Relative infection to DMSO controls) Average 5 μM (SARS2): 112.05 | Percentage Inhibition Average 10 μM (SARS2): −16.46% | Screening data (Relative infection to DMSO controls) Average 10 μM (SARS2): 116.46 | Percentage Inhibition Average 25 μM (SARS2): −5.43% | Screening data (Relative infection to DMSO controls) Average 25 μM (SARS2): 105.43 | Percentage Inhibition Average 50 μM (SARS2): −15.34% | Screening data (Relative infection to DMSO controls) Average 50 μM (SARS2): 115.34 | Average (relative infection to DMSO over the 5 tested concentrations) (SARS2): 110.41 | Infection Data, Average, Mean (SARS2; n 9, 1 uM): 102.77% | Infection Data, Average, Mean (SARS2; n 9, 5 uM): 112.05% | Infection Data, Average, Mean (SARS2; n 9, 10 uM): 116.46% | Infection Data, Average, Mean (SARS2; n 9, 25 uM): 105.43% | Infection Data, Average, Mean (SARS2; n 9, 50 uM): 115.34%

COc1ccc(CNCCc2ccccc2F)c(OCC(O)CN2CCN(C)CC2)c1 (stereo not drawn) [UMB18, 1-[2-({[2-(2-fluorophenyl)ethyl]amino}methyl)-5-methoxyphenoxy]-3-(4-methyl-1-piperazinyl)-2-propanol]
NS1 protein by western blot (IAV NS1 protein): lack of NS1 protein | IAV NS1 mRNA (IAV NS1 mRNA): marked reduction in mRNA | toxicity by CellTiter-Glo assay (A549 cells): minimal toxicity | IC50 (MERS-CoV): ~5 µM | toxicity by CellTiter-Glo assay (Huh7 cells): minimal toxicity | 10 μM treatment, Average (Influenza virus; 10 μM treatment, average of replicates): 11250 and 1250 and 2000 and 18000 | 10 μM treatment (Influenza virus; 10 μM treatment, replicate 2): 12000 and 1000 and 35000 | 10 μM treatment (Influenza virus; 10 μM treatment, replicate 3): 1000 and 2000 | 10 μM treatment (Influenza virus; 10 μM treatment, replicate 4): 5000 and 1000 | 50 μM treatment Average (Influenza virus; 50 μM compound, average of replicates): 1000 and 333.3 and 0 (2×) | 50 μM treatment (Influenza virus; 50 μM compound, replicate 1, DMSO (0.5%) control run per batch): 0 | 50 μM treatment (Influenza virus; 50 μM compound, replicate 2): 3000 and 0 (2×) | 50 μM treatment (third value column) (Influenza virus; 50 μM compound, replicate 3): 0 and 1000 | 50 μM treatment (fourth value column) (Influenza virus; 50 μM compound, replicate 4): 1000 | time of addition: inhibition of IAV when drug added 2 h after infection (Influenza virus): marked reduction in the level of inhibition | IC50 (Influenza virus): ~5 µM | antiviral activity against IAV infection (Influenza virus): showed antiviral activity against influenza | IC50 [1]: ~5 µM | IC50 [2]: ~16 µM

COc1ccc(CNCCc2ccccc2C)c(OCC(O)CN2CCN(C)CC2)c1 (stereo not drawn) [UMB18-2]
inhibition of SARS-CoV (SARS-CoV; 10 μM): inhibition, but to a lesser extent | reduction in virus production (SARS-CoV; 50 μM): 1 log | NS1 protein by western blot (IAV NS1 protein): lack of NS1 protein | IAV NS1 mRNA (IAV NS1 mRNA): marked reduction in mRNA | IC50 (MERS-CoV): ~5 µM | time of addition: inhibition of IAV when drug added 2 h after infection (Influenza virus): marked reduction in the level of inhibition | IC50 (Influenza virus): ~5 µM | antiviral activity against IAV infection (Influenza virus): capable of inhibiting IAV infection | inhibition of SARS-CoV-2 virus production by TCID50 (SARS-CoV-2): capable of inhibiting virus production; also recorded: less so | IAV RNA amplified by M-RTPCR (IAV RNA): total loss of IAV RNA | SARS-CoV-2 mRNA production [3]: capable of inhibiting SARS-CoV-2 mRNA production
